Experimental data reported in US20060167084A1, “Delta-9-THC compositions and methods for treating symptoms associated with multiple sclerosis” (Unimed Pharmaceuticals, Inc., priority 2003, published 2006).

What was measured:
[1] = system: patients with multiple sclerosis; experiment: Category-rating scales of symptoms (patient reported secondary outcomes); format: in vivo, human
[2] = system: patients with multiple sclerosis; experiment: Adverse events reported by patients
[3] = system: spasticity related to multiple sclerosis; experiment: Ashworth score of spasticity, randomized placebo-controlled MS study; format: in vivo, human; settings: baseline to 13 weeks' follow-up
[4] = system: patients with multiple sclerosis; experiment: Timed 10 meter walk; format: in vivo, human; settings: baseline to follow-up (visit 7)
[5] = system: patients with multiple sclerosis; experiment: Patient assessment of treatment benefit at visit 8; format: in vivo, human

## CCCCCc1cc(O)c2c(c1)OC(C)(C)[C@@H]1CCC(C)=C[C@@H]21 [delta-9-THC, (6aR-trans)-6a,7,8,10a-tetrahydro-6,6,9-trimethyl-3-pentyl-6H-dibenzo>b,d!pyran-1-ol]
[1]; number of patients
  Depression: Deterioration, patients: 42
  Depression: Improvement, patients: 36
  Depression: Same, patients: 47
  Energy: Deterioration, patients: 49
  Energy: Improvement, patients: 61
  Energy: Same, patients: 63
  Irritability: Deterioration, patients: 32
  Irritability: Improvement, patients: 37
  Irritability: Same, patients: 42
  Pain: Deterioration, patients: 22
  Pain: Improvement, patients: 64
  Pain: Same, patients: 43
  Shake/tremor: Deterioration, patients: 32
  Shake/tremor: Improvement, patients: 52
  Shake/tremor: Same, patients: 44
  Sleep: Deterioration, patients: 24
  Sleep: Improvement, patients: 71
  Sleep: Same, patients: 57
  Spasms: Deterioration, patients: 37
  Spasms: Improvement, patients: 81
  Spasms: Same, patients: 49
  Spasticity: Deterioration, patients: 47
  Spasticity: Improvement, patients: 89
  Spasticity: Same, patients: 40
  Tiredness: Deterioration, patients: 76
  Tiredness: Improvement, patients: 35
  Tiredness: Same, patients: 46
[1]; percent of patients
  Depression: Deterioration: (34%)
  Depression: Improvement: (29%)
  Depression: Same: (38%)
  Energy: Deterioration: (28%)
  Energy: Improvement: (35%)
  Energy: Same: (36%)
  Irritability: Deterioration: (29%)
  Irritability: Improvement: (33%)
  Irritability: Same: (38%)
  Pain: Deterioration: (17%)
  Pain: Improvement: (50%)
  Pain: Same: (33%)
  Shake/tremor: Deterioration: (25%)
  Shake/tremor: Improvement: (41%)
  Shake/tremor: Same: (34%)
  Sleep: Deterioration: (16%)
  Sleep: Improvement: (47%)
  Sleep: Same: (38%)
  Spasms: Deterioration: (22%)
  Spasms: Improvement: (49%)
  Spasms: Same: (29%)
  Spasticity: Deterioration: (27%)
  Spasticity: Improvement: (51%)
  Spasticity: Same: (23%)
  Tiredness: Deterioration: (48%)
  Tiredness: Improvement: (22%)
  Tiredness: Same: (29%)
[2]; in words
  Incidences of MS relapse by comparison with placebo: greatly reduced
[2]; number of events reported
  Adverse event: Blocked/insertion of suprapubic catheter: 0
  Adverse event: Constipation: 0
  Adverse event: Grand mal seizure: 0
  Adverse event: MS relapse or possible relapse: 1
  Adverse event: Other: 11
  Adverse event: Pneumonia: 2
  Adverse event: Urinary tract infection: 3
[3]
  Mean (SD) change in Ashworth score, lower-body muscle groups: 1.39 (5.21)
  Mean (SD) change in Ashworth score, upper-body muscle groups: 0.48 (4.70)
[3]; all muscle groups
  Mean (SD) change in total Ashworth score (baseline minus follow-up): 1.86 (7.95)
[4]
  Reduction of median time taken to walk 10 meters: 12%
[5]; visit 8, number of patients
  Symptom improvement Bladder: No, patients: 97
  Symptom improvement Bladder: Yes, patients: 67
  Symptom improvement Pain: No, patients: 64
  Symptom improvement Pain: Yes, patients: 64
  Symptom improvement Spasticity: No, patients: 73
  Symptom improvement Spasticity: Yes, patients: 108
  Symptom improvement Tremor: No, patients: 67
  Symptom improvement Tremor: Yes, patients: 44
[5]; visit 8, percent of patients
  Symptom improvement Bladder: No: (59%)
  Symptom improvement Bladder: Yes: (40%)
  Symptom improvement Pain: No: (50%)
  Symptom improvement Pain: Yes: (50%)
  Symptom improvement Spasticity: No: (40%)
  Symptom improvement Spasticity: Yes: (60%)
  Symptom improvement Tremor: No: (60%)
  Symptom improvement Tremor: Yes: (40%)
